According to PubChem BioAssay (NCI):
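In this assay, cells in 96-well plates receive the compound at five concentrations for 48 hours. Endpoints are linearly interpolated between the surrounding concentrations. GI50 = concentration required for 50% inhibition of growth. TGI marks complete inhibition of growth.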

Experiments:
Assay in all cases: growth of human tumour cells (NCI), 48 h
[1] = tested on: ACHN renal
[2] = tested on: HOP-62 NSCLC
[3] = tested on: NCI-H460 lung
[4] = tested on: HL-60(TB) leukemia
[5] = tested on: DU-145 prostate
[6] = tested on: UACC-62 melanoma
[7] = tested on: U251 CNS
[8] = tested on: MDA-MB-435
[9] = tested on: SNB-19 CNS
[10] = tested on: SF-268 CNS
[11] = tested on: RXF 393 renal
[12] = tested on: UO-31 renal
[13] = tested on: COLO 205 colon
[14] = tested on: PC-3 prostate
[15] = tested on: HS 578T breast
[16] = tested on: LOX IMVI melanoma
[17] = tested on: SF-539 CNS
[18] = tested on: HCT-116 colon
[19] = tested on: HOP-92 NSCLC
[20] = tested on: KM12 colon
[21] = tested on: OVCAR-4 ovarian
[22] = tested on: EKVX NSCLC
[23] = tested on: MCF7 breast
[24] = tested on: A498 renal
[25] = tested on: SNB-75 CNS
[26] = tested on: BT-549 breast
[27] = tested on: HCT-15 colon
[28] = tested on: SW-620 colon
[29] = tested on: NCI/ADR-RES ovarian
[30] = tested on: SK-MEL-2 melanoma
[31] = tested on: HCC-2998 colon
[32] = tested on: IGROV1 ovarian
[33] = tested on: OVCAR-3 ovarian
[34] = tested on: SK-OV-3 ovarian
[35] = tested on: HT29 colon
[36] = tested on: T-47D breast
[37] = tested on: SK-MEL-28 melanoma
[38] = tested on: K-562 leukemia
[39] = tested on: M14 melanoma
[40] = tested on: NCI-H226 lung
[41] = tested on: NCI-H23 lung
[42] = tested on: CCRF-CEM leukemia
[43] = tested on: 786-0 renal
[44] = tested on: SK-MEL-5 melanoma
[45] = tested on: SN12C renal
[46] = tested on: UACC-257 melanoma
[47] = tested on: NCI-H522 lung
[48] = tested on: SF-295 CNS
[49] = tested on: TK-10 renal
[50] = tested on: OVCAR-8 ovarian
[51] = tested on: OVCAR-5 ovarian
[52] = tested on: MDA-MB-231 breast
[53] = tested on: A549 NSCLC
[54] = tested on: MALME-3M melanoma
[55] = tested on: CAKI-1 renal
[56] = tested on: SR leukemia

SMILES: Fc1cc(-c2nnc3n2N=C(c2ccc(Cl)cc2)CS3)c(Cl)cc1Cl
- GI50 [1]: 3.22 µM
- TGI [1]: 9.58 µM
- GI50 [2]: 20.1 µM
- TGI [2]: 36.4 µM
- GI50 [3]: 18.2 µM
- TGI [3]: 37.4 µM
- GI50 [4]: 0.96 µM
- TGI [4]: > 100 µM
- GI50 [5]: 6.47 µM
- TGI [5]: 17.1 µM
- GI50 [6]: 4.3 µM
- TGI [6]: 14.9 µM
- GI50 [7]: 11.4 µM
- TGI [7]: 28.4 µM
- GI50 [8]: 4.97 µM
- TGI [8]: 18.4 µM
- GI50 [9]: 19.1 µM
- TGI [9]: 51.1 µM
- GI50 [10]: 13.9 µM
- TGI [10]: 33.1 µM
- GI50 [11]: 5.57 µM
- TGI [11]: 14.7 µM
- GI50 [12]: 2.99 µM
- TGI [12]: > 20.5 µM
- GI50 [13]: 7.08 µM
- TGI [13]: 49.1 µM
- GI50 [14]: 16.6 µM
- TGI [14]: 31.6 µM
- GI50 [15]: 22.7 µM
- TGI [15]: 51.5 µM
- GI50 [16]: 1.77 µM
- TGI [16]: 3.86 µM
- GI50 [17]: 3.35 µM
- TGI [17]: 11.1 µM
- GI50 [18]: 2.36 µM
- TGI [18]: 5.85 µM
- GI50 [19]: 13.7 µM
- TGI [19]: 36.1 µM
- GI50 [20]: 13.1 µM
- TGI [20]: 36.4 µM
- GI50 [21]: 7.91 µM
- TGI [21]: 32.8 µM
- GI50 [22]: 23.5 µM
- TGI [22]: 48.1 µM
- GI50 [23]: 4.56 µM
- TGI [23]: 17.9 µM
- GI50 [24]: 21 µM
- TGI [24]: 42.4 µM
- GI50 [25]: 7.33 µM
- TGI [25]: 21.9 µM
- GI50 [26]: 3.27 µM
- TGI [26]: 8.66 µM
- GI50 [27]: 4.82 µM
- TGI [27]: 13.8 µM
- GI50 [28]: 1.55 µM
- TGI [28]: 3 µM
- GI50 [29]: 9.29 µM
- TGI [29]: 36.8 µM
- GI50 [30]: 27 µM
- TGI [30]: > 57.8 µM
- GI50 [31]: 15.9 µM
- TGI [31]: 31.1 µM
- GI50 [32]: 4.25 µM
- TGI [32]: > 37.6 µM
- GI50 [33]: 13.6 µM
- TGI [33]: 35.8 µM
- GI50 [34]: 22.5 µM
- TGI [34]: 51.5 µM
- GI50 [35]: 2.71 µM
- GI50 [36]: 2.76 µM
- TGI [36]: 20 µM
- GI50 [37]: 7.56 µM
- TGI [37]: 34.8 µM
- GI50 [38]: 1.57 µM
- TGI [38]: > 100 µM
- GI50 [39]: 4.87 µM
- TGI [39]: 17.2 µM
- GI50 [40]: 17.8 µM
- TGI [40]: 40.6 µM
- GI50 [41]: 6.67 µM
- TGI [41]: 20.8 µM
- GI50 [42]: 0.328 µM
- TGI [42]: 1.13 µM
- GI50 [43]: 2.08 µM
- TGI [43]: 3.55 µM
- GI50 [44]: 3.91 µM
- TGI [44]: 15 µM
- GI50 [45]: 3.85 µM
- TGI [45]: 16.8 µM
- GI50 [46]: 14.7 µM
- TGI [46]: 28.8 µM
- GI50 [47]: 2.79 µM
- GI50 [48]: 17 µM
- TGI [48]: 34.7 µM
- GI50 [49]: 3.09 µM
- TGI [49]: 11.2 µM
- GI50 [50]: 15.3 µM
- TGI [50]: 44.3 µM
- GI50 [51]: 15.5 µM
- TGI [51]: 32.7 µM
- GI50 [52]: 6.57 µM
- TGI [52]: 18.2 µM
- GI50 [53]: 18.7 µM
- TGI [53]: 41.8 µM
- GI50 [54]: 2.75 µM
- TGI [54]: 10.5 µM
- GI50 [55]: 4.61 µM
- TGI [55]: 17.4 µM
- GI50 [56]: 0.49 µM
- TGI [56]: > 100 µM
